Experimental data: article PMC7751940, “Synthesis, characterization and evaluation of antidengue activity of enantiomeric Schiff bases derived from S-substituted dithiocarbazate” (Turkish Journal of Chemistry, 2020)
Where two headings read alike, the source gives them in different places.

Tests used:
DENV 2 [1] = assay: Foci forming unit reduction assay (FFURA, secondary evaluation); format: cell-based, dengue virus type 2 (DENV 2); details: for Selectivity index CC50/IC50: CC50 (Vero, MTT) / IC50 (FFURA, DENV 2); for reduction in the number of foci: three different dilutions; for IC50: Dengue virus, 96 h, read-out: IC50 ± SE
Procedure: (§1) Aedes albopictus clone C6/36 cells were maintained to propagate the dengue virus type 2 (DENV 2); African green monkey ( Chlorocebus sp.) kidney Vero cells were grown for antiviral analysis. Both cells were grown in Eagle’s Minimum Essential Medium (EMEM) (Biowest LLC, Riverside, MO, USA) with 10% Fetal Bovine Serum (FBS) (Biowest LLC).
Antiviral activity was quantitatively validated by measuring the reduction in the number of DENV infectious foci after 4 days of treatment. DENV 2 infected Vero cells were treated with different antiviral dilutions supplemented with 2% FBS and 1.5% carboxymethyl cellulose (CMC). Virus foci were stained and visualized according to the published protocol. The number of foci was counted through stereomicroscope and virus titer was stated as foci forming unit (FFU). To calculate the antiviral activity of antidengue compounds, the percentage reduction in foci (%RF) was calculated between the treated, and untreated wells maintained in parallel. The assay was repeated three times, dose-response curves were plotted and half […] inhibitory concentration (IC50) and selectivity index (SI) were calculated.

MTT cytotoxicity assay = format: cell-based; details: African green monkey (Chlorocebus sp.), Vero cells (kidney), four days incubation, Table 4
Procedure: as §1
The 96-well plates were seeded with 100 µL of Vero cell suspension at a density of 1 × 10^5 cells / mL and the next day were treated with different dilutions of the synthesized compounds. Control wells were treated with only the vehicle media used to prepare the antiviral dilutions. Plates were incubated for four days at 37 °C. Following the addition of 15 μL of MTT (Sigma-Aldrich Corp., St. Louis, MO, USA) solution into each well, the plates were incubated at 37 °C for another 4 h. Subsequently, the medium was carefully aspirated from all the wells and 100 μL of DMSO was added to each well [26]. The optical density (OD) of the wells was measured at 570 nm using a 96-well plate reader (Tecan Group AG, Männedorf, Switzerland). The percentage cell viability was calculated against the untreated controls. Dose-response curves were plotted. Half maximal cytotoxic concentration (CC50) was calculated using Graph Pad Prism for Windows, Version 5 (GraphPad Software Inc., San Diego, CA, USA).

DENV 2 [2] = assay: CPE reduction-based antiviral assay (primary evaluation); format: cell-based, dengue virus type 2 (DENV 2); parameters: key: ++++ for total reduction; +++ for 75% reduction; ++ for 50% reduction; + for less than 50% reduction; -- for no reduction; details: DENV 2-infected Vero cells, treated after 1 h viral adsorption, graded per Kudi and Myint
Procedure: as §1
Ribavirin tablets (Copegus, 200 mg, Genentech, Inc., South San Francisco, CA, USA) were purchased and stock solutions were stored. Dilutions were prepared in 2% FBS (maintenance media) at the time of assay. TCID50 assay was employed to measure the titer of the virus stocks for antiviral evaluation following standard methods. The viral CPE was observed on the third and fourth days and observations were recorded based on the Reed–Muench method.
Plates were seeded with Vero cell suspension (100 µL) at a density of 1 × 10^5 cells/mL one day before the wells were treated with TCID50 (100 µL) dilution of the DENV 2 stock and untreated control wells were maintained in parallel. After 1 h of viral adsorption, unbound viruses were washed and different antiviral dilutions were added. These plates were further incubated for 4 more days and were observed daily. Observations were recorded on the third and fourth days. The wells were marked for CPE reduction according to the grading system defined by Kudi and Myint.

[3] = DENV 2 infected Vero cells, foci reduction after 4 days of treatment

Compound | Selectivity index CC50/IC50 (DENV 2 [1]) | reduction in the number of foci (DENV 2 [1]; DENV 2 infected Vero cells) | IC50 (DENV 2 [1]; [3]) [µM] | CC50 at 4 days (MTT cytotoxicity assay) [µM] | CPE reduction (DENV 2 [2]) | IC50 (DENV 2 [1]; Vero) [µM]
CC1(C)[C@@H]2CC[C@@]1(C)/C(=N/NC(=S)SCc1ccccc1)C2 [SBRCM, Benzyl (E)-2-((1R,4R)-1,7,7-trimethylbicyclo[2.2.1]heptan-2-ylidene)hydrazine-1-carbodithioate] | 10.4 | reduction in the number of foci appearance | 7.8 ± 4.5 | 81.7 ± 4.4 | ++ (++ for 50% reduction) | 
C=C(C)[C@@H]1CC=C(C)/C(=N/NC(=S)SCc2ccccc2)C1 [SBRCV, Benzyl (R,E)-2-(2-methyl-5-(prop-1-en-2-yl)cyclohex-2-en-1-ylidene)hydrazine-1-carbodithioate] |  |  |  | 28.5 ± 3.9 | + (+ for less than 50% reduction) | 
CC1(C)[C@H]2CC[C@]1(C)/C(=N/NC(=S)SCc1ccccc1)C2 [SBSCM, Benzyl (E)-2-((1S,4S)-1,7,7-trimethylbicyclo[2.2.1]heptan-2-ylidene)hydrazine-1-carbodithioate] | 12.8 | reduction in the number of foci appearance | 6.8 ± 2.3 | 87.2 ± 5.9 | ++ (++ for 50% reduction) | 
C=C(C)[C@H]1CC=C(C)/C(=N/NC(=S)SCc2ccccc2)C1 [SBSCV, Benzyl (S,E)-2-(2-methyl-5-(prop-1-en-2-yl)cyclohex-2-en-1-ylidene)hydrazine-1-carbodithioate] |  |  |  | 29.2 ± 6.4 | + (+ for less than 50% reduction) | 
CSC(=S)N/N=C1\C[C@H]2CC[C@]1(C)C2(C)C [SMRCM, Methyl (E)-2-((1R,4R)-1,7,7-trimethylbicyclo[2.2.1]heptan-2-ylidene)hydrazine-1-carbodithioate] | 12.8 | reduction in the number of foci appearance | 6.9 ± 1.2 | 88.4 ± 3.8 | ++ (++ for 50% reduction) | 
C=C(C)[C@@H]1CC=C(C)/C(=N/NC(=S)SC)C1 [SMRCV, Methyl (R,E)-2-(2-methyl-5-(prop-1-en-2-yl)cyclohex-2-en-1-ylidene)hydrazine-1-carbodithioate] |  |  |  | 31.1 ± 8 | -- | 
CSC(=S)N/N=C1\C[C@@H]2CC[C@@]1(C)C2(C)C [SMSCM, Methyl (E)-2-((1S,4S)-1,7,7-trimethylbicyclo[2.2.1]heptan-2-ylidene)hydrazine-1-carbodithioate] | 14.3 | reduction in the number of foci appearance | 6.2 ± 3.2 | 88.7 ± 2 | ++ (++ for 50% reduction) | 
CSC(=S)N/N=C1\C(=O)[C@@]2(C)CC[C@@H]1C2(C)C [SMSCQ, Methyl (Z)-2-((1R,4S)-4,7,7-trimethyl-3-oxobicyclo[2.2.1]heptan-2-ylidene)hydrazine-1-carbodithioate] |  | reduction in the number of foci appearance |  | 69.2 ± 5.9 | + (+ for less than 50% reduction) | 6.8 ± 2.8
C=C(C)[C@H]1CC=C(C)/C(=N/NC(=S)SC)C1 [SMSCV, Methyl (S,E)-2-(2-methyl-5-(prop-1-en-2-yl)cyclohex-2-en-1-ylidene)hydrazine-1-carbodithioate] |  |  |  | 24.5 ± 9.2 | -- | 
